In patent US8318898B2, “Synthetic peptides for use as inhibitors of neurotransmitter secretion and as inducers of cellular relaxation” (Universite de Lausanne, priority 2005, dated 2012):
Where two headings read alike, the source gives them in different places. Ends that are not written are not given here.

Columns and labels:
[1] = tested on: PC12 cells; experiment: Inhibition of [3H]norepinephrine neurosecretion by PC12 cells; format: cell-based, rat; conditions: for inhibition of secretion, stability test: 100 μM; for inhibition of neurotransmitter-evoked secretion: concentration not given, peptide alone; for level of inhibition maintained over the 48 hour period: cultured with PC12 cells for 48 hours in the presence or absence of serum, up to 90%
Description: Using the neurosecretion assay described above, peptides fused to the TAT-PTD (L-TAT) were tested for inhibition of neurotransmitters and compared to use of L-TAT alone (SEQ ID NO: 3). In vitro screening for synthetic peptides capable of efficiently and selectively blocking neurotransmitter release in the PC12 cell line grown under defined conditions was performed.
PC12 cells were washed with DMEM-WM (Dulbecco's Modified Eagle Medium (GIBCO cat. no. 31968) completed with 25 units of penicillin and streptomycin each) and loaded for 1-2 h with [^3H] norepinephrine (NE; 0.5 μCi/ml) in DMEM-CM (DMEM-WM complemented with 6% horse serum and 6% fetal calf serum). Cells were washed for 1 h with DMEM-WM, and then washed 2 times at 5-minute intervals. Basal release was determined by a 15-minutes incubation with CaSB-glucose 5 mM K^+ (CaSB-glucose: 140 mM NaCl, 5 mM KCl, 2 mM CaCl2, 11 mM glucose, [pH 7.4]). The peptides were added to the cells at defined concentrations after loading with NE but before induction of secretion. Cells were depolarized with 85 mM K^+ (CaSB-glucose with Na^+ reduced accordingly) for 15 minutes to determine stimulated release. Superfusate (1 ml) was removed to tubes. Adherent cells were solubilized in CaSB-glucose-0.1% Triton (1 ml/well). The quantities of released and non-released radiolabeled neurotransmitter were determined by liquid scintillation counting of cleared superfusates and cell lysates, respectively. Total uptake was calculated by addition of released and retained radioactivity, and the percentage release was as calculated (released counts/total uptake counts)×100. Results were also expressed as percent inhibition of neurosecretion.

[2] = target: T1, furin (Rattus norvegicus, UniProt P23377); format: biochemical
T1 construct: Furin activity was constitutively detected in PC12-ES cells; endogenous in cells; host or cells: PC12-ES cells (lysate)
Description: To monitor the intracellular furin activity, 80% confluent PC12-ES cells were washed twice with ice-cold phosphate-buffered saline (PBS1×) by centrifugation at 800×g for 5 minutes at 4° C., resuspended in 100 mM HEPES, 1 mM CaCl2, 0.5% TritonX-100, and 1 mM 2-β-mercaptoethanol, pH 7.5, sonicated 6 times at 4° C. for 10 seconds, and then centrifuged at 8000×g for 20 minutes at 4° C. The protein concentration in the samples was determined using a bicinchonic acid protein assay kit (Pierce Chemical Co.).
Intracellular furin activity was measured with a furin-specific fluorogenic substrate, t-butyloxycarbonyl (Boc)-[…]-7-amino-4-methylcoumarin (MCA). Briefly, the cell lysate (20 μg-60 μg of protein) prepared as described above was incubated with 100 μM Boc-RVRR-MCA in a 96-well flat-bottom black plate for at least 6 hours at room temperature and fluorescence measured by excitation at 365 nm and emission at 450 nm.

[3] = target: Recombinant furin (Homo sapiens, UniProt P09958); experiment: biochemical; format: biochemical
Description: To determine if the peptides described herein have an effect on the activity of PC enzymes which are involved in a condition or disorder such as fibrosis, the effect of the peptides on furin activity in vitro was measured as percent inhibition of cleavage of the furin substrate fluorogenic t-butyloxycarbonyl (Boc)-RVRR-7-amino-4-methylcoumarin (MCA).
All in vitro enzyme studies were performed at room temperature in a final volume of 50-100 μl in 96-well flat-bottom black plates. The buffer consisted of 100 mM HEPES, 1 mM CaCl2, 0.5% TritonX-100, and 1 mM 2-β-mercaptoethanol pH 7.5. Assays were performed using Boc-RVRR-MCA as fluorogenic substrate at 100 μM. Recombinant furin (0.8 U of activity) was incubated with Boc-RVRR-MCA in the presence or absence of varying concentrations of synthetic peptides D-9Rac/am (SEQ ID NO. 15), L-Bel1 (SEQ ID NO. 3), or L-9K (SEQ ID NO. 6). One unit of activity is defined as the amount of furin that can release 1 μmol of MCA from the fluorogenic Boc-RVRR-MCA per min at 30° C. The release of highly fluorescent 7-amino 4-methyl coumarin (MCA) from the Boc-RVRR-MCA was monitored by a spectrofluorometer instrument at excitation and emission wavelengths of 370 nm/460 nm. […]

[4] = tested on: PC12-ES cells; experiment: [3H]NE evoked secretion by PC12-ES cells with secretagogues; format: cell-based, rat; conditions: potassium 80 mM, nicotine 0.1 mM or carbachol 1 mM, 15 minutes
Description: Neurotransmitter Secretion by PC12-ES. PC12 cells offer a number of advantages for studies of regulated secretion. Exocytosis of large dense-core vesicles (LDCVs) in these cells can be easily assayed for the release of radioactive norepinephrine ([^3H]NE) from pre-labeled cells [Greene et al., Brain Res, 129:247-63, 1977; Greene et al., J Neurochem, 30:579-86, 1978; Greene et al., J. Neurochem. 30:549-55, 1978; Greene et al., Brain Res. 138:521-8; 1977; Greene et al., Nature 268:349-51, 1977]. The neurosecretion assay was carried out by measuring [^3H]NE evoked secretion with PC12-ES cells.
PC12-ES cells were either untreated, treated with STSP (100 nM), or treated with NGF (50 ng/ml) for 48 h before the loading with [^3H]NE and prepared for release measurements. […] Media were collected, and released [^3H]NE as well as the total cell content were determined by liquid scintillation counting. Basal secretion was measured in calcium secretion buffer (CaSB) without secretagogue or CaSB supplemented with 11 mM glucose (CaSB-Glucose). The data are expressed in Table 1 as the percent secretion: [amount released/(amount released+amount in cell lysate)]×100. Net secretion is secretagogue-stimulated release minus basal release.

[5] = cited from earlier work

Recombinant furin, sequence (P09958 108-794): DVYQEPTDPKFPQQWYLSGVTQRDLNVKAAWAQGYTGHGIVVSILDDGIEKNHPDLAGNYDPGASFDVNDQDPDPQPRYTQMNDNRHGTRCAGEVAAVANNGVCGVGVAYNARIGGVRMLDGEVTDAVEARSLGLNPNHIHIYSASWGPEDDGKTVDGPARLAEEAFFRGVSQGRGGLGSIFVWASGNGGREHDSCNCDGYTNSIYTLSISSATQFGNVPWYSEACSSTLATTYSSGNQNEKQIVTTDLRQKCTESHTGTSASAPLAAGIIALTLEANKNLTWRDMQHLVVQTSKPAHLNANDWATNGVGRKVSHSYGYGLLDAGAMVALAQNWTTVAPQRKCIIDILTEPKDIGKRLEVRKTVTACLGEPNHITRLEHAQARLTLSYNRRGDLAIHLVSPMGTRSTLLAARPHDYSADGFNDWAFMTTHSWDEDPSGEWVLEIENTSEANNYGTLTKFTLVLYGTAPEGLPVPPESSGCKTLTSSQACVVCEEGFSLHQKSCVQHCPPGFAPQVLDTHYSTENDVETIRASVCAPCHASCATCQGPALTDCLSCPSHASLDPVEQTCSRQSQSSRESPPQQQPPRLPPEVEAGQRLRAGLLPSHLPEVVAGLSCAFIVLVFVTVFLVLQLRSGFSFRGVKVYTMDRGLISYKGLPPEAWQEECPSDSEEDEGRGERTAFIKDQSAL
T1 sequence (P23377 108-793): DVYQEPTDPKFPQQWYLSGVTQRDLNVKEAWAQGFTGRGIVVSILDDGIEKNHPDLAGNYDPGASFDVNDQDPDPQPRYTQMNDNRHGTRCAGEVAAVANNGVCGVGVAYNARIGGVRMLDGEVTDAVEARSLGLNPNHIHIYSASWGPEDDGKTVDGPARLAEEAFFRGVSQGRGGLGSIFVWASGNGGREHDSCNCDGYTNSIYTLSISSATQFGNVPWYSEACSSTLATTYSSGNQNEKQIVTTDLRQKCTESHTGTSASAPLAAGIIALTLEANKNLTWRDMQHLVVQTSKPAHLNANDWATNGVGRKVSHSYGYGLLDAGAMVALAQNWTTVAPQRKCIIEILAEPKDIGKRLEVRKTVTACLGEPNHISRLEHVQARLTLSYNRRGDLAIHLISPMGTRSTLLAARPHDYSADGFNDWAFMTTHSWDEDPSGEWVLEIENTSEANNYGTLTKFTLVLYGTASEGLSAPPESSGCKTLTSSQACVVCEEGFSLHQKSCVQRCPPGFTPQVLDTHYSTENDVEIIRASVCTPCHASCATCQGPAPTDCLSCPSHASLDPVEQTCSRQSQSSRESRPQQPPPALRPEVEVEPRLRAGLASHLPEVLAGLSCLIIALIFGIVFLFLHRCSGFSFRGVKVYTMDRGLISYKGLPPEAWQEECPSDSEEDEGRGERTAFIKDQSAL

MRPEDpep: SEQ ID NO: 7 (KKKKKFSFKKPFKLSGLSFKRNRK; Synthetic peptide MRPED)
dose dependence of inhibition of neurosecretion [1]: dose dependent inhibition
inhibition of secretion, stability test ([1]; 0 hours): >20%
inhibition of secretion, stability test ([1]; 1 hour): 23%
inhibition of secretion, stability test ([1]; 24 hours): 15%
inhibition of secretion, stability test ([1]; No Serum): 17%

L-Tat-MRP: SEQ ID NO: 9 (GYGRKKRRQRRRGKKKKKFSFKKPFKLSGLSFKRNRK; Synthetic peptide L-Tat-MRPED)
dose dependence of inhibition of neurosecretion [1]: dose dependent inhibition

L-Tat-ESUP-A: SEQ ID NO: 1; ESUP-A fused to the TAT-PTD (GYGRKKRRQRRRGSNKTRIDEANQRATKMLGSG; Synthetic peptide L-Tat-ESUP-A)
dose dependence of inhibition of neurosecretion [1]: dose dependent inhibition
inhibition of PC12 neurotransmitter secretion ([1]; peptide 10 μM): 30%
inhibition of PC12 neurotransmitter secretion ([1]; peptide 50 μM): 40%
inhibition of PC12 neurotransmitter secretion ([1]; peptide 100 μM): 50%
inhibition of PC12 neurotransmitter secretion ([1]; peptide 250 μM): 70%

O=C(O)CN(CCN(CC(=O)O)CC(=O)O)CC(=O)O [EDTA, reference compound]
inhibition of intracellular furin activity (in words) [2]: inhibited
inhibition of in vitro furin activity (in words) [3]: effectively suppressed

C[N+](C)(C)CCOC(N)=O [Carbachol]
percent secretion of [3H]NE ([4]; CaSB-Glucose, NGF differentiated cells): 32.4%
percent secretion of [3H]NE ([4]; CaSB-Glucose, STSP differentiated cells): 57%
percent secretion of [3H]NE ([4]; CaSB-Glucose, non-differentiated cells): 37.24%
percent secretion of [3H]NE ([4]; CaSB, NGF differentiated cells): 27%
percent secretion of [3H]NE ([4]; CaSB, STSP differentiated cells): 46.5%
percent secretion of [3H]NE ([4]; CaSB, non-differentiated cells): 44.7%

L-Tat-3D-MRP: SEQ ID NO: 10 (GYGRKKRRQRRRGKKKKKFDFKKPFKLDGLDFKRNRK; Synthetic peptide L-Tat-3DMRPED)
dose dependence of inhibition of neurosecretion [1]: dose dependent inhibition

Pal-Lys-Thr-Thr-Lys-Ser (Pal-KTTKS) [palmitoyl pentapeptide]
improving the effects of photo-aging ([5]; 3 ppm versus retinol 700 ppm): as effective as retinol
side effects ([5]; in vivo): not associated with any side effects

3D-MRP: SEQ ID NO: 8 (KKKKKFDFKKPFKLDGLDFKRNRK; Synthetic peptide 3DMRPED) [Peptide 3D-MRP]
dose dependence of inhibition of neurosecretion [1]: dose dependent inhibition

9R-L-Ac-am: SEQ ID NO: 11 (Ac-GYGRRRRRRRRRG-NH2) [Peptide 9R-L-Ac-am]
inhibition of neurotransmitter-evoked secretion [1]: approximately 67%
level of inhibition maintained over the 48 hour period [1]: approximately 80%

GRRRRRRRRRGYG [Peptide 9Rrev-D]
inhibition of neurotransmitter-evoked secretion [1]: approximately 57%
level of inhibition maintained over the 48 hour period [1]: approximately 80%

L-Tat 49-86: SEQ ID NO: 4 (GRKKRRQRRRAHQNSQTHQASLSKQPTSQPRGDPTGKEG; Synthetic peptide L-Tat 49-86)
inhibition of secretion, stability test ([1]; 0 hours): <20%
inhibition of secretion, stability test ([1]; 1 hour): >10%
inhibition of secretion, stability test ([1]; 24 hours): 26%
inhibition of secretion, stability test ([1]; 48 hours): 25%
inhibition of secretion, stability test ([1]; No Serum): 50%

9R-MRP: SEQ ID NO: 22; fusion peptide (GYGRRRRRRRRRGKKKKKKFSFKKPFKLSGLSFKRNRK; Synthetic peptide 9R-MRP)
inhibition of secretion ([1]; 50 μM (mixture: 50 μM each)): approximately 70%

9R-L: SEQ ID NO: 5 (GYGRRRRRRRRRG; Synthetic peptide 9R-L)
inhibition of neurotransmitter-evoked secretion [1]: approximately 70%
level of inhibition maintained over the 48 hour period [1]: approximately 80%

O=C(O)CN(CCOCCOCCN(CC(=O)O)CC(=O)O)CC(=O)O [EGTA, reference compound]
inhibition of intracellular furin activity (in words) ([2]; EDTA 50 mM, EGTA 50 mM, Dec-RVKR-CMK 50 μM): inhibited
inhibition of in vitro furin activity (in words) ([3]; Boc-RVRR-MCA 100 μM as substrate): effectively suppressed

GYGRRRRRRRRRG [Peptide 9R-D]
inhibition of neurotransmitter-evoked secretion [1]: approximately 65%
level of inhibition maintained over the 48 hour period [1]: approximately 80%

NH2-SNKTRIDEANQRATKMLGSG-COOH (H-SNKTRIDEANQRATKMLGSG-OH) [ESUP-A, reference compound]
inhibition of neurotransmitter secretion (in words) [1]: only minimal inhibition
inhibition of PC12 neurotransmitter secretion ([1]; peptide 100 μM): 20%
